Results from ChEMBL document CHEMBL1127916, “Synthesis and biological character of 1-hydroxylated vitamin D3 Analogues” (1994).

Key:
[1] = target: T1, Vitamin D-binding protein (Rattus norvegicus) (UniProt P04276); assay: Relative binding potency for rat vitamin D binding protein (DBP) by competitive displacement with [3H]1-alpha,25(OH)2D3
T1 sequence (whole entry): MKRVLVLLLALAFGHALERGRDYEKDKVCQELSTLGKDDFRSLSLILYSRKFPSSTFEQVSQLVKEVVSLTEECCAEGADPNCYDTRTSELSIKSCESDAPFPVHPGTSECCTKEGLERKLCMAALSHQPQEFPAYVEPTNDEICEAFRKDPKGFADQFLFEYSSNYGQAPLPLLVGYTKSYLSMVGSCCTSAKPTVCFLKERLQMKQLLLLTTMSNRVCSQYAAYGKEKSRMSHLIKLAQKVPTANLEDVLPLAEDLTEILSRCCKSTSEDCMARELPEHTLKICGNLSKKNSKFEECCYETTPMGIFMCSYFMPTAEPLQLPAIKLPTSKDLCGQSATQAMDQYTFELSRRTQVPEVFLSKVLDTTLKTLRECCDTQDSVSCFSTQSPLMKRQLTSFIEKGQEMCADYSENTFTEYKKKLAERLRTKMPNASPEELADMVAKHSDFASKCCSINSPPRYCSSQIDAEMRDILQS

[2] = target: T2, Vitamin D3 receptor (Bos taurus) (UniProt Q28037); assay: Relative binding for bovine thymus vitamin D receptor (VDR) by displacement with [3H]1-alpha,25(OH)2D3
T2 sequence (whole entry): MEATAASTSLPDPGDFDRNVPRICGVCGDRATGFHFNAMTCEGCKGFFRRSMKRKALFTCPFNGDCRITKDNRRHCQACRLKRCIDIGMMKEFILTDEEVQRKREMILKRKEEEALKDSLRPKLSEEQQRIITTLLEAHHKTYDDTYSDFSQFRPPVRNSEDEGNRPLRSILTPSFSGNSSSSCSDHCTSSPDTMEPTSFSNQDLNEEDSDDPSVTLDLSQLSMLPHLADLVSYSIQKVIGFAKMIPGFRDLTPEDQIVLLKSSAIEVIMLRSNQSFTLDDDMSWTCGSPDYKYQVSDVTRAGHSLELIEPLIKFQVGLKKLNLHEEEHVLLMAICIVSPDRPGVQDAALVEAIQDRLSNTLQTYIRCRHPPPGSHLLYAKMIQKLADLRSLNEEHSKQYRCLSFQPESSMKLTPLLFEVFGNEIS

HL-60 = assay: Antiproliferative activity in human promyeloid leukemia cells (HL-60); assay type: functional

Relative binding potency [1]	Relative binding potency [2]	SMILES	Relative potency (HL-60)
4.1	0.7	C=C1/C(=C\C=C2/CCC[C@@]3(C)C2CC[C@@H]3[C@H](C)CCCC(C)(C)O)C[C@@H](O)[C@@H](OCCCO)[C@@H]1O (stereo partly specified)	–
0.007	0.007	C=C1/C(=C\C=C2/CCC[C@@]3(C)C2CC[C@@H]3[C@H](C)OCCC(C)(C)O)C[C@@H](O)C[C@H]1O (stereo partly specified)	0.003
2.9	0.2	C=C1/C(=C\C=C2/CCC[C@@]3(C)C2CC[C@@H]3[C@H](C)CCCC(C)(C)O)C[C@@H](O)C[C@H]1O (stereo partly specified)	0.2
6.7	0.003	C=C1/C(=C\C=C2/CCC[C@@]3(C)C2CC[C@@H]3[C@H](C)CCCC(C)(C)O)C[C@@H](O)[C@@H](OCCCO)[C@H]1O (stereo partly specified)	–
1	1	C=C1/C(=C\C=C2/CCC[C@]3(C)[C@@H]([C@H](C)CCCC(C)(C)O)CC[C@@H]23)C[C@@H](O)C[C@@H]1O [CALCITRIOL]	1
0.002	0.6	C=C1/C(=C\C=C2/CCC[C@]3(C)[C@@H]([C@H](C)OCCC(C)(C)O)CC[C@@H]23)C[C@@H](O)C[C@@H]1O [MAXACALCITOL]	3.1
